In patent US12290588B2, “Peptide having activity of improving skin condition and use thereof” (CAREGEN CO., LTD., priority 2019, dated 2025):

What was measured:
Elastin = experiment: RT-PCR of Elastin expression in UV-irradiated fibroblasts; type: cell-based, mouse; details: NIH3T3 fibroblasts, UV 6 J/cm^2, peptide 10, 50 or 100 μM before and 6 hours after irradiation, PCR (FIG. 6)
Protocol: (§1) In this example, changes in the cellular activity of fibroblasts were evaluated through the expression of Col1a1, Fibronectin, and Elastin, which are known as components of the dermis. Also, changes in the cellular activity of keratinocytes were evaluated through the expression of SIRT1, which is an anti-aging gene, and AQP3, which is a component of the skin barrier. Based on the evaluation results, the effect of the peptide according to an embodiment on the restoration of the cellular activity of the fibroblasts and keratinocytes was confirmed. In detail, NIH3T3 mouse fibroblasts or HaCaT human keratinocytes were respectively seeded in a 6-sell plate at a density of 3×10^5 cells/well, and cultured for 16 hours. Afterwards, the culture medium was replaced with a serum-free medium, the peptide consisting of the amino acid sequence of SEQ ID NO: 1 was added thereto at a concentration of 10 μM, 50 μM, or 100 μM, and the cells were cultured for 1 hour. Each well containing the cultured cells was washed with PBS, and the NIH3T3 cells or the HaCaT cells were respectively irradiated with ultraviolet light of 6 J/cm^2 or 20 J/cm^2, so as to induce inhibition of the cellular activity. […]

TNF-α = experiment: RT-PCR of TNF-α expression in UV-irradiated keratinocytes; type: cell-based, human; details: HaCaT keratinocytes, peptide 10, 50 or 100 μM for 1 hour, UV 15 J/cm^2, PCR (FIG. 8)
Protocol: (§2) HaCaT human keratinocytes were seeded in a 6-well plate at a density of 3×10^5 cells/well, and cultured for 16 hours. Afterwards, the culture medium was replaced with a serum-free medium, the peptide consisting of the amino acid sequence of SEQ ID NO: 1 was added thereto at a concentration of 10 μM, 50 μM, or 100 μM, and the cells were cultured for 1 hour. Each well containing the cultured cells was washed with PBS, and the HaCaT cells were irradiated with ultraviolet light of 15 J/cm^2, so as to induce an increase in the expression of inflammatory cytokine which is an inflammatory factor. Then, mRNA was extracted from the cultured cells, and reverse-transcribed into cDNA by using a cDNA synthesis kit and PCR pre-mix (Intron, Korea). Afterwards, PCR was performed by using the cDNA and primers of TNF-α, COX-2, IL-1β, and IL-6. Meanwhile, a control group and a positive group were used in the same manner as in Example 4, and the nucleotide sequences of the primers used herein are shown in Table 5.

PPAR-γ = experiment: RT-PCR of PPAR-γ expression in fibroblasts; type: cell-based; details: NIH3T3 mouse fibroblasts, peptide 10, 50 or 100 μM, 24 hours, PCR (FIG. 2)
Protocol: (§3) In this example, an effect the peptide according to an embodiment on the cellular activity of fibroblasts was to be confirmed by measuring the expression levels of PPAR-γ, PPAR-δ, and PGC-1α, which are mitochondrial biogenesis-related genes. In detail, NIH3T3 mouse fibroblasts were seeded in a 6-well plate at a density of 3×10^5 cells/well, and cultured for 16 hours. Afterwards, the culture medium was replaced with a serum-free medium, the peptide consisting of the amino acid sequence of SEQ ID NO: 1 was added thereto at a concentration of 10 μM, 50 μM, or 100 μM, and the cells were cultured for 24 hours. Then, mRNA was extracted from the cultured cells, and reverse-transcribed into cDNA by using a cDNA synthesis kit and PCR pre-mix (Intron, Korea). Afterwards, a polymerase chain reaction (PCR) was performed by using the cDNA and primers of PPAR-γ, PPAR-δ, and PGC-1α. Meanwhile, a control group and positive groups were used in the same manner as in Example 2, and the nucleotide sequences of the primers used herein are shown in Table 2.

MMP-2 = experiment: Gelatin zymography of MMP-2 activity in UV-irradiated fibroblasts; type: cell-based, mouse; details: NIH3T3 fibroblasts, UV 6 J/cm^2, peptide 10, 50 or 100 μM before and 24 hours after irradiation, gelatin zymography (FIG. 5)
Protocol: (§4) NIH3T3 mouse fibroblasts were seeded in a 6-well plate at a density of 3×10^5 cells/well, and cultured for 16 hours. Afterwards, the culture medium was replaced with a serum-free medium, the peptide consisting of the amino acid sequence of SEQ ID NO: 1 was added thereto at a concentration of 10 μM, 50 μM, or 100 μM, and the cells were cultured for 1 hour. Each well containing the cultured cells was washed with PBS, and the NIH3T3 cells were irradiated with ultraviolet light of 6 J/cm^2, so as to induce an increase in the expression of MMP-1 and MMP-2. Afterwards, the culture medium was replaced with a serum-free medium, the peptide consisting of the amino acid sequence of SEQ ID NO: 1 was added thereto at a concentration of 10 μM, 50 μM, or 100 μM, and the cells were cultured for 24 hours. Afterwards, cell lysates were obtained by adding a lysis buffer to the cultured cells, and then, western blotting was performed thereon by using MMP-1 antibodies (cell signaling, USA) to measure the expression of MMP-1.
Meanwhile, the cell lysates were subjected to gelatin zymography to measure the activity of MMP-2. In detail, after protein electrophoresis (SDS-PAGE) was performed by using 2 mg/ml of gelatin as a substrate. […]

MMP-1 = experiment: Western blotting of MMP-1 in UV-irradiated fibroblasts; type: cell-based, mouse; details: NIH3T3 fibroblasts, UV 6 J/cm^2, peptide 10, 50 or 100 μM before and 24 hours after irradiation, western blotting (FIG. 5)
Protocol: as §4

PGC-1α = experiment: RT-PCR of PGC-1α expression in fibroblasts; type: cell-based; details: NIH3T3 mouse fibroblasts, peptide 10, 50 or 100 μM, 24 hours, PCR (FIG. 2)
Protocol: as §3

Fibronectin = experiment: RT-PCR of Fibronectin expression in UV-irradiated fibroblasts; type: cell-based, mouse; details: NIH3T3 fibroblasts, UV 6 J/cm^2, peptide 10, 50 or 100 μM before and 6 hours after irradiation, PCR (FIG. 6)
Protocol: as §1

Col1a1 = experiment: RT-PCR of Col1a1 expression in UV-irradiated fibroblasts; type: cell-based, mouse; details: NIH3T3 fibroblasts, UV 6 J/cm^2, peptide 10, 50 or 100 μM before and 6 hours after irradiation, PCR (FIG. 6)
Protocol: as §1

procollagen 1α = experiment: Procollagen 1α ELISA in fibroblast medium; type: cell-based; details: NIH3T3 mouse fibroblasts, peptide 10, 50 or 100 μM, 24 hours, ELISA of medium (FIG. 1)
Protocol: NIH3T3 mouse fibroblasts were seeded in a 6-well plate at a density of 5×10^3 cells/well, and cultured for 16 hours. Afterwards, the culture medium was replaced with a serum-free medium, the peptide consisting of the amino acid sequence of SEQ ID NO: 1 was added thereto at a concentration of 10 μM, 50 μM, or 100 μM, and the cells were cultured for 24 hours. Then, the amount of procollagen 1α in the medium was measured by using a Procollagen 1α ELISA kit (Us biological lifescience, USA). Meanwhile, a non-treated group (Con) was used as a control group, and a group to which 100 nM of bFGF was added and a group to which 5 ng/ml of TGF-β1 was added were used as positive control groups.

PPAR-δ = experiment: RT-PCR of PPAR-δ expression in fibroblasts; type: cell-based; details: NIH3T3 mouse fibroblasts, peptide 10, 50 or 100 μM, 24 hours, PCR (FIG. 2)
Protocol: as §3

SIRT1 = experiment: RT-PCR of SIRT1 expression in UV-irradiated keratinocytes; type: cell-based, human; details: HaCaT keratinocytes, UV 20 J/cm^2, peptide 10, 50 or 100 μM before and 6 hours after irradiation, PCR (FIG. 7)
Protocol: as §1

COX-2 = experiment: RT-PCR of COX-2 expression in UV-irradiated keratinocytes; type: cell-based, human; details: HaCaT keratinocytes, peptide 10, 50 or 100 μM for 1 hour, UV 15 J/cm^2, PCR (FIG. 8)
Protocol: as §2

cleaved caspase-3 [1] = experiment: Western blotting of cleaved caspase-3 in UV-irradiated fibroblasts; type: cell-based, mouse; details: NIH3T3 fibroblasts, UV 6 J/cm^2, peptide 10, 50 or 100 μM before and 24 hours after irradiation, western blotting (FIG. 3)
Protocol: (§5) NIH3T3 mouse fibroblasts or HaCaT human keratinocytes were respectively seeded in a 6-sell plate at a density of 3×10^5 cells/well, and cultured for 16 hours. Afterwards, the culture medium was replaced with a serum-free medium, the peptide consisting of the amino acid sequence of SEQ ID NO: 1 was added thereto at a concentration of 10 μM, 50 μM, or 100 μM, and the cells were cultured for 1 hour. Each well containing the cultured cells was washed with phosphate buffered saline (PBS), and the NIH3T3 cells or HaCaT cells were respectively irradiated with ultraviolet light of 6 J/cm^2 or 15 J/cm^2, so as to induce an increase in the expression of apoptosis proteins. Afterwards, the culture medium was replaced with a serum-free medium, the peptide consisting of the amino acid sequence of SEQ ID NO: 1 was added thereto at a concentration of 10 μM, 50 μM, or 100 μM, and the cells were cultured for 24 hours. Cell lysates were obtained by adding a lysis buffer to the cultured cells, and then, western blotting was performed thereon by using cleaved PARP-1 and cleaved caspase-3 antibodies (Santacruz biotechnology, USA). Meanwhile, a non-treated group (Con) was used as a control group. […]

cleaved caspase-3 [2] = experiment: Western blotting of cleaved caspase-3 in UV-irradiated keratinocytes; type: cell-based, human; details: HaCaT keratinocytes, UV 15 J/cm^2, peptide 10, 50 or 100 μM before and 24 hours after irradiation, western blotting (FIG. 4)
Protocol: as §5

IL-6 = experiment: RT-PCR of IL-6 expression in UV-irradiated keratinocytes; type: cell-based, human; details: HaCaT keratinocytes, peptide 10, 50 or 100 μM for 1 hour, UV 15 J/cm^2, PCR (FIG. 8)
Protocol: as §2

IL-1β = experiment: RT-PCR of IL-1β expression in UV-irradiated keratinocytes; type: cell-based, human; details: HaCaT keratinocytes, peptide 10, 50 or 100 μM for 1 hour, UV 15 J/cm^2, PCR (FIG. 8)
Protocol: as §2

cleaved PARP-1 = experiment: Western blotting of cleaved PARP-1 in UV-irradiated keratinocytes; type: cell-based, human; details: HaCaT keratinocytes, UV 15 J/cm^2, peptide 10, 50 or 100 μM before and 24 hours after irradiation, western blotting (FIG. 4)
Protocol: as §5

AQP3 = experiment: RT-PCR of AQP3 expression in UV-irradiated keratinocytes; type: cell-based, human; details: HaCaT keratinocytes, UV 20 J/cm^2, peptide 10, 50 or 100 μM before and 6 hours after irradiation, PCR (FIG. 7)
Protocol: as §1

With ECEELEEK (Peptide 1) [SEQ ID NO: 1] the “expression of Elastin inhibited by ultraviolet irradiation” value (Elastin) was “restored back to normal levels”, the “expression of TNF-α increased by ultraviolet irradiation” value (TNF-α) was “reduced” and the “expression of PPAR-γ” value (PPAR-γ) was “increased”. For the same sequence, the “activity of MMP-2 increased by ultraviolet irradiation” value (MMP-2) was “reduced”, the “expression of MMP-1 increased by ultraviolet irradiation” value (MMP-1) was “reduced” and the “expression of PGC-1α” value (PGC-1α) was “increased”. For the same sequence, the “expression of Fibronectin inhibited by ultraviolet irradiation” value (Fibronectin) was “restored back to normal levels”, the “expression of Col1 a1 inhibited by ultraviolet irradiation” value (Col1a1) was “restored back to normal levels” and the “expression of procollagen 1α” value (procollagen 1α) was “increased”. For the same sequence, the “expression of PPAR-δ” value (PPAR-δ) was “increased”, the “expression of SIRT1 reduced by ultraviolet irradiation” value (SIRT1) was “restored” and the “expression of COX-2 increased by ultraviolet irradiation” value (COX-2) was “reduced”. For the same sequence, the “expression of cleaved caspase-3 increased by ultraviolet irradiation” value (cleaved caspase-3 [1]) was “reduced”, the “expression of cleaved caspase-3 increased by ultraviolet irradiation” value (cleaved caspase-3 [2]) was “significantly reduced” and the “expression of IL-6 increased by ultraviolet irradiation” value (IL-6) was “reduced”. For the same sequence, the “expression of IL-1β increased by ultraviolet irradiation” value (IL-1β) was “reduced”, the “expression of cleaved PARP-1 increased by ultraviolet irradiation” value (cleaved PARP-1) was “significantly reduced” and the “expression of AQP3 reduced by ultraviolet irradiation” value (AQP3) was “restored”.
